Assay results reported in patent US8367620B2, “Peptidic growth hormone secretagogues analog compounds and preparations thereof” (Centro de Ingenieria Genetica y Biotecnologia, priority 2006, dated 2013).

Experiments:
PC12 cells = assay type: cell-based; settings: differentiated PC12 cells, 72 h incubation, MTT; read-out: IC50 during the NGF deprivation induced neuronal death
Protocol: PC12 cells were stored in 75 cm^2 culture flasks on DMEM containing 5% bovine foetal serum and 10% horse serum, with 50 μg/ml gentamicin. Cells were incubated at 37° C. in 5% CO2. To induce differentiation cells were transferred at a density of 1×10^4 to polylysine covered 96 well plates in NGF supplemented DMEM media for 7 days, with medium replacement every 2-3 days. After differentiation cells were incubated with peptidic GHS analog compounds, at different concentrations for 72 h. Cell survival and proliferation was determined using the Promega non-radioactive cytotoxicity proliferation assay, Cell Titer 96, based in the conversion of 3-(4,5-dimethylthiazole-2-yl)-2,5-diphenyltetrazolium bromide (MTT) in to a spectrophotometrically detectable product. After deprivation of NGF medium is removed and 15 μl of the DMEM dissolved dye is added, after 4 hours of 37° C. incubation 100 μl of the stopping solution is added and absorbance is measured at 570 nm

[1] = test system: primary cultures of granular cerebellum cells; assay type: cell-based, Wistar rats; settings: 500 μM hydrogen peroxide, rat cerebellum granular cells; read-out: IC50 during the induced neuronal damage by Hydrogen Peroxide addition to a primary culture of neurons
Protocol: Primary cultures of granular cerebellum cells were obtained from 7-9 days Wistar rats. After a rapid dissection, rat cerebellums were submerged in a cold solution and meningeal membranes were removed, each organ was transferred to a 2-3 ml fresh medium solution and finely sliced. Cells were dissociated using a Pasteur pipette and filtered through a nylon […] membrane (Falcon, Franklin Lakes, N.J.). The number of viable cells was determined by cell counting in a hematocytometer with tripan blue as a marker. Cells were cultured on polylysine covered 96 well plates at a density of 6250 cells in […] final volume. Cultures were kept at 37° C. in 5%. CO2 after 24 h, 10 μM of cytosine arabinofuranose (AraC; Sigma) was added to inhibit the proliferation of non-neuronal cells. The capacity of neural damage prevention was tested adding 500 μM hydrogen peroxide in different concentrations of peptidic GHS analog compounds, Cell survival was determined using the Promega non-radioactive cytotoxicity proliferation assay, Cell Titer 96 (Promega).

IGF-I mRNA = IGF-I mRNA in liver and GH level of intraperitoneally injected tilapias; assay type: in vivo, tilapia; settings: liver of intraperitoneally injected tilapias
Protocol: IGF-I mRNa was determined in the liver of intraperitoneally injected tilapias monitoring also the GH level time course, showing the peptidic GHS analog compounds as able to stimulate in fish the GH levels in the bloodstream and at incrementing the IGF-I mRNA levels after the injection of the compounds as shown in table 4.

tilapias = assay: Growth acceleration on juvenile tilapias treated intraperitoneally; assay type: in vivo; settings: juvenile tilapia, ip 0.1 μg/g twice a week, three weeks
Protocol: The compounds were dissolved in a sodium phosphate (PBS) buffer solution and injected twice a week, during three weeks at 0.1 μg/g of humid fish weight (gbw). Compounds were applied individually to a group of 10 male tilapias with an average weight of 60.41±10.36 g and a control group with an average weight of 60.58±19.67 g was receiving PBS only as a control, measuring the average weight every week, all animals in the experiment were labelled with microchips (Stoelting Co. Wood Dale, USA.). for proper identification.

[2] = test system: tilapia Oreochromis sp. larvae; assay: Growth stimulation of tilapia larvae by immersion; assay type: in vivo; settings: immersion 100 μg/L, one hour twice a week, three weeks
Protocol: (§1) Growth stimulation experiments on tilapia Oreochromis sp. larvae were performed evaluating groups of 100 larvae with 0.01 g average, using the peptidic GHS analogs, in a 100 μg/L concentration, twice a week using an immersion time of one hour.

lysozyme = assay: Lysozyme levels in tilapia larvae treated by immersion; assay type: in vivo, Oreochromis sp.; settings: immersion 100 μg/L
Protocol: as §1
During this experiment lysozyme levels were also monitored and an increase of this immunity marker was obtained in the treated animals as shown in table 8.

Litopenaeus vanamei = assay: Growing of shrimp larvae by dipping in solution of the compounds; assay type: in vivo; settings: four dips of one hour every three days, 0.1 g/L
Protocol: Shrimp larvae were subjected two four dips, for one hour every three days with different peptidic GHS analogs at 0.1 g/L. The control group was subjected to the same frequency of dipping with 1 mg/L BSA.

[3] = test system: Post-larvae of Litopenaeus vanamei; assay: Growth stimulation in shrimps by dietary supplementation; assay type: in vivo; settings: compound at 1% in post-larvae crustacean diet
Protocol: The peptidic GHS analogs were included at 1% in a post-larvae crustacean diet. Post-larvae of Litopenaeus vanamei were fed with the aforementioned diet in parallel with a control group with 1% BSA addition. The effect was measured with an optical micrometer and weighing the animals in a 0.1 mg precision scale.

[4] = test system: Litopenaeus vanamei post-larvae; assay: Growth of shrimp post-larvae fed Artemia-bioencapsulated compounds; assay type: in vivo; settings: Artemia bioencapsulated (10 mh/L, one hour), fed four times a day for one month
Protocol: The peptidic GHS analogs were bioencapsulated in Artemia to be fed to Litopenaeus vanamei post-larvae. For the encapsulation the compounds were added in a 10 mh/L left for an hour, harvested and washed. The animals were fed four times a day for one month while the control group was fed with BSA encapsulated Artemia The effect was measured with an optical micrometer and weighing the animals in a 0.1 mg precision scale.

Sequence | IC50 (PC12 cells) | IC50 [1] | Normalized IGF-I mRNA levels to a non related synthetic peptide control group (IGF-I mRNA) | Weight Inc. (%), control group growing = 100% (tilapias) | Weight Inc. (%), control group growing = 100% [2] | Lysozyme levels of the treated animals relative to the control group (lysozyme) | Size Inc. (%), control group growing = 100% (Litopenaeus vanamei) | Weight Inc. (%), control group growing = 100% (Litopenaeus vanamei) | Size Inc. (%), control group growing = 100% [3] | Size Inc. (%), control group growing = 100% [4]
GLEFKLLHQ [Compound A238, L-amino acid peptide with internal side-chain cycle, SEC; ID NO: 18] | 2040 nM | 1000 nM | 1.24 | 129.4% | 112.6% | 1.33 | 117.9% | 129.2% | 130.1% | 140.0%
GMEAGIKLCHRQ [Compound A235, L-amino acid peptide with internal side-chain cycle, SEC; ID NO: 15] | 2050 nM | 1010 nM | 0.9 | 89.9% | 90.0% | 1.90 | 112.5% | 121.0% | 137.0% | 134.2%
HAKPGGIDPEQ [Compound A229, L-amino acid peptide with internal side-chain cycle, SEC; ID NO: 9] | 3410 nM | 1330 nM | 1.09 | 126.5% | 125.0% | 1.15 | 115.9% | 126.1% | 140.0% | 140.0%
HCKFDLDWH [Compound A223, L-amino acid peptide with internal side-chain cycle, SEC; ID NO: 3] | 3120 nM | 2470 nM | 1.40 | 105.0% | 102.0% | 1.52 | 110.9% | 120.0% | 131.6% | 132.0%
HGSKFDLEFG [Compound A222, L-amino acid peptide with internal side-chain cycle, SEC; ID NO: 2] | 2030 nM | 1300 nM | 1.115 | 96.2% | 96.0% | 1.43 | 112.2% | 121.0% | 131.0% | 130.3%
HKGIDSPEQH [Compound A232] | 4890 nM | 3280 nM | 1.23 | 160.1% | 148.3% | 2.41 | 123.0% | 132.8% | 139.7% | 139.6%
